Data set [1] has as its system isolated yeast mitochondria. In words: Ca2+ transport in isolated yeast mitochondria expressing aequorin (luminescence). The conditions noted are these: 2 μM A23187, medium containing no added Ca^2+, FIG. 22B. The data set is classed as biochemical, Saccharomyces cerevisiae. The protocol:
For preculture, the transformant was inoculated into 50 ml of SC-U plus 2% glucose, and incubated in an air shaker at 180 rpm and 30° C. At 24 hr, the preculture was transferred to 500 ml of a medium containing 1% yeast extract, 2% peptone, 2% lactate, 1% galactose, 0.012% adenine, pH 5 w/NaOH, and growth was continued under conditions which were otherwise the same. Cells were harvested after an additional 24 hr, spheroplasts were prepared using zymolyase, and mitochondria were isolated by the method of Daum et al. (1982) as previously described (Jung et al., 1997). The final pellet was resuspended at ˜20 mg protein/ml in 0.6 M mannitol, 20 mM HEPES (K^+ salt, pH 6.8). Apoaequorin in the intact or disrupted mitochondria was reconstituted by incubation with coelenterazine as described above for cells.
For most experiments, the mitochondria were present at 0.4 mg protein/ml in a standard medium that contained 0.3 M KCl, 20 mM HEPES, (K^+ salt, pH 7.10), 10 mM KH2PO4, 2 mM EGTA, and 2 mM MgCl2. Other additions are described in greater detail below. Ca^2+ buffers were formed by adding various amounts of CaCl2 to this EGTA containing medium. The free Ca^2+ concentrations which resulted were calculated using a computer program (Brooks et al., 1992 Anal. Biochem. 201:119).
Luminescence measurements were carried out in 6×50 mm culture tubes, using a total volume of 0.3 ml, and were started by injection of 5-20 μl of mitochondria or cells. A SAI model 3000 integrating photometer was employed, with AJD sampling at 0.4 seconds intervals driven by Asyst software. Values were transformed into corresponding Ca^2+ concentrations by computer assisted calculations based upon published calibration methods (Allen et al., 1977 Science 195:996; Brini et al., 1995 J. Biol. Chem. 270:9896). For each value, the ratio of observed luminescence (L) to the potential luminescence remaining (Lmax) was calculated, and compared to a calibration curve which relates this ratio to the free Ca^2+ concentration. Thus, complete calibrated progress curves were generated. The total luminescence available initially (Ltotal) must be known and was determined in separate experiments, wherein a saturating Ca^2+ concentration (20 μM) is employed to discharge the aequorin completely. This value allows Lmax to be calculated at any time, as Ltotal minus the sum of luminescence that already occurred.
The calibration data were obtained at an ionic strength of 335 mM and in the presence of 1 mM Mg^2+, to mimic conditions in the mitochondrial matrix, because both factors influence the affinity of aequorin for Ca2+ (Cobbold et al., 1987 Biochem. J. 248:313). Luminescence values were corrected for low background values that are obtained when Ca^2+ is absent before conducting further calculations.

Data set [2] relates to intact yeast. In words: Aequorin luminescence in intact yeast cells expressing mitochondrially targeted aequorin. The data set is classed as cell-based, Saccharomyces cerevisiae. The conditions noted are these: intact cells. How it is done:
Yeast cells (strain X4003-5B; leu2, ade1, his4, met2, ura3, trp5, gal1) obtained from the Yeast Genetic Stock Center (Berkeley, Calif.) were transformed with the pYES2 plasmid, encoding the human mitochondrially targeted apoaequorin fragment, using the lithium acetate method (Sambrook et al., 1989), and INVSc1 cells were transformed with the pGK plasmid encoding the yeast mitochondrially targeted apoaequorin fragment. Selection was carried out on plates prepared with synthetic complete medium minus uracil (SC-U) (Sherman, 1991 Meths. Enzymol. 194:3). Transformed colonies were cultured in a small volume of SC-U and assayed for aequorin activity in vitro as described by Nakajima et al. (1991 Proc. Nat. Acad. Sci. USA 88:6878). Briefly, the cells were harvested by centrifugation, resuspended in lysis buffer (50 mM Tris, 2 mM EDTA, 0.5 mM PMSF, pH 8 w/NaOH), disrupted by vortexing with glass beads, and then treated with 0.1% Triton X-100 to release apoaequorin from the mitochondria. Following centrifugation, 200 μl aliquots of the supernatants were incubated with coelenterazine (2.5 μM) and 2-mercaptoethanol (2 μl), for ˜3 hr while standing on ice, to form the luminescent aequorin from its apoprotein. The coelenterazine cofactor is highly hydrophobic and readily permeates yeast cell membranes (Nakajima et al., 1991) such that reconstitution was conducted without disrupting the cells in some cases. 2-mercaptoethanol was omitted when intact cells were employed. A transformant which yielded high luminescence (named X4003-5B-AEQmito1) was selected for further characterization.
For preculture, the transformant was inoculated into 50 ml of SC-U plus 2% glucose, and incubated in an air shaker at 180 rpm and 30° C. At 24 hr, the preculture was transferred to 500 ml of a medium containing 1% yeast extract, 2% peptone, 2% lactate, 1% galactose, 0.012% adenine, pH 5 w/NaOH, and growth was continued under conditions which were otherwise the same. […]
Luminescence measurements were carried out in 6×50 mm culture tubes, using a total volume of 0.3 ml, and were started by injection of 5-20 μl of mitochondria or cells. […] For each value, the ratio of observed luminescence (L) to the potential luminescence remaining (Lmax) was calculated, and compared to a calibration curve which relates this ratio to the free Ca^2+ concentration. […] The total luminescence available initially (Ltotal) must be known and was determined in separate experiments, wherein a saturating Ca^2+ concentration (20 μM) is employed to discharge the aequorin completely. This value allows Lmax to be calculated at any time, as Ltotal minus the sum of luminescence that already occurred. […]

For data set [3] the following is noted: Yuchi et al., 1993; cited from earlier work.
Data set [4] is described as follows: Esterase cleavage of divalent cation-sensitive indicator molecule precursors (fluorescence). The data set is classed as biochemical. To be noted: precursor 1 μg/ml, sonicated E. coli expressing the esterase. The text has this:
Standard molecular biology procedures were used (Sambrook et al., 1989 Molecular Cloning: A Laboratory Manual, Cold Spring Harbor Laboratory Press, Cold Spring Harbor, N.Y.). All reagents were from Sigma (St. Louis, Mo.) unless otherwise indicated. E. coli cells expressing esterases from several sources: B. subtilis para-nitrobenzyl esterase from plasmid PNB106R (Zock et al., 1994) (SEQ ID NO:1; SEQ ID NO:7); Acinetobacter areA expressed in E. coli strain BL21(DE3) (SEQ ID NO:2; from plasmid pADPW40, Jones et al. 1999 J. Bacteriol. 181:4568, obtained from Drs. R. Jones and P. Williams, Univeristy of Wales Bangor, UK); Acinetobacter SalE expressed in E. coli strain BL21(DE3) (SEQ ID NO:3; from plasmid pADPW70, Jones et al. 2000 J. Bacteriol. 1832:2018, also obtained from Drs. R. Jones and P. Williams, Univeristy of Wales Bangor, UK) were grown in 10 mL of standard LB media plus ampicillin (100 μg/ml) at 37° C. Tetracycline (10 μg/ml) was present instead of ampicillin for the cells expressing B. subtilis para-nitrobenzyl esterase. For strains expressing all proteins except para-nitrobenzyle esterase, the cells were grown to an OD (λ=600 nm) of 0.6 and protein expression was induced by administration of […] IPTG for 4 hours until the culture reached an OD600 of ˜1.0. Cells expressing para-nitrobenzylesterase were grown at 30° C. and protein expression was induced by a temperature shift to 40° C. for 6 hours. The cells attained an OD600 of ˜1.0. Cells were washed, pelleted by centrifugation, and then resuspended in 0.5 ml of cold 0.12 M Tris Cl, pH 8.0. Cells were sonicated for ten seconds and then incubated on ice for ten seconds. This sonication step was repeated eight times.
For fluorescence measurements, a volume of 50 μl of the sonicated cell suspension was placed in 3.0 ml of 0.1 M KCl, 50 uM EGTA, 20 mM HEPES pH 7.40. As a divalent cation-sensitive indicator molecule, one of the following compounds (all from Molecular Probes, Inc., Eugene, Oreg.) was present at a final concentration of 1 μg/ml: BCECF AM (BCECF (2′,7′-bis-(2-carboxyethyl)-5-(and-6)-carboxyfluorescein), a proton indicator used as an esterase-cleavable control), Rhod-2 AM, Fluo-3 AM, Indo-1 AM, or Fura-2 AM. To monitor detection of divalent cation using the divalent cation-sensitive indicator molecules generated by esterase cleavage of the precursor forms, each reaction was made 2 mM CaCl2 The wavelengths used for the indicator dyes were as follows: Fluo-3, excitation 488 nm, emission 520 nm; Rhod-2, excitation 540 nm, emission 580 nm; Indo-1 AM, excitation 338 nm, emission scan […]; Fura-2, excitation scan 250-450 nm, emission 510 nm; BCECF, excitation 440 nm, emission 550 nm.

With `CNc1ccc2oc(C[C@H]3O[C@@]4(CC[C@H]3C)O[C@H]([C@H](C)C(=O)c3ccc[nH]3)[C@H](C)C[C@H]4C)nc2c1C(=O)O` [A23187], the “effect on matrix Ca^2+ concentration” value in data set [1] is on record as “reduced the matrix Ca^2+ concentration below the detection limit”. In data set [2], the “additional luminescence when added after the response to ETH 129” value is recorded as “absence of any additional luminescence”.
As to `COc1cc(N(CC(=O)O)CC(=O)O)c2nc(COc3cc(C)ccc3N(CC(=O)O)CC(=O)O)ccc2c1` [Quin-2], in data set [3], the “pKa^4” value is reported as 6.25.
As to coelenterazine n, in data set [2] (FIG. 19B), the “luminescence intensity as aequorin cofactor vs parent coelenterazine” value is “comparable to that of the parent”.

B1: areA: Acinetobacter areA esterase expressed in E. coli BL21(DE3) (SEQ ID NO:2) (protein, listed as Acinetobacter sp.)
chain: MLQSLDPQLASFFAMLENQGAPAFDIGTLNDPNINEMRNWYLNFGPHVAGQFIELQDVEDLWIQVDDGSLRLRLYKTQRQHSESCETLIYFHGGGWCIGSIETHDLLCRHLVNDLDVNVISVDYRLAPEYPYPQAAHDAIHATQWIFEHASALGIHPDHLYVAGDSAGGNLAAITALTFKEQTYRTSLAGQILIYPCIDLTVIHDNKYPSFEKQKLTPPLSAEQMSKMIQIYLKNEDFAYQWLASPLLAQSHQHLPSTLIITAEFDPLHDQGCVYFEKLKSSLVNTEYHEIKGVVHGFFEMYGVLNKTKETINIIRAWLKNNTKSK
As for B1, the “hydrolysis of indicator precursors (AM esters) to Ca^2+-sensitive indicator molecules” value (shortened to “hydrolysis of indicator precursors”) in data set [4] is reported as “rate of hydrolysis appeared to be significantly slower”.

B2: Para-nitrobenzyl esterase: B. subtilis para-nitrobenzyl esterase from plasmid PNB106R (SEQ ID NO:1; SEQ ID NO:7) (protein, listed as Bascillus subtilis)
chain: MTHQIVTTQYGKVKGTTENGVHKWKGIPYAKPPVGQWRFKAPEPPEVWEDVLDATAYGPICPQPSDLLSLSYTELPRQSEDCLYVNVFAPDTPSQNLPVMVWIHGGAFYLGAGSEPLYDGSKLAAQGEVIVVTLNYRLGPFGFLHLSSFDEAYSDNLGLLDQAAALKWVRENISAFGGDPDNVTVFGESAGGMSIAALLAMPAAKGLFQKAIMESGASRTMTKEQAASTAAAFLQVLGINESQLDRLHTVAAEDLLKAADQLRIAEKENIFQLFFQPALDPKTLPEEPEKSIAEGAASGIPLLIGTTRDEGYLFFTPDSDVHSQETLDAALEYLLGKPLAEKAADLYPRSLESQIHMMTDLLFWRPAVAYASAQSHYAPVWMYRFDWHPEKPPYNKAFHALELPFVFGNLDGLERMAKAEITDEVKQLSHTIQSAWITFAKTGNPSTEAVNWPAYHEETRETVILDSEITIENDPESEKRQKLFPSKGE
Regarding B2, in data set [4], the “hydrolysis of indicator precursors” value was “detectably hydrolyzed all divalent cation-sensitive indicator molecule precursors that were tested”.

B3: HD-1 esterase: HD-1 esterase from an oil degrading bacterium (SEQ ID NO:4) (protein)
chain: MTLDAQAKAILDQIARSPMPKLHQVPASVARQMFEISCKLTEIKNLPIGRVEDRVIPGPDDTELPIRIYTPVAAPPGPLPVLVFFHGGGFVIGSLDSHDAPCRLIANEARCLVVSVDYRLAPENRFPAAVDDCLAAVTWVARNAAEINADPTRIAVGGDSAGGNLSAVVSQQLRDAGGPKIVFQLLIYPATDALHEGLSRTSNAEGYMLDKDLMSWFFAQYLGDGGGVDLADPRFSPLRHANLGNLGTIHVVVAGFDPLRDEGIAYAEALKAAGNKVTLSEFKGQIHGFCSMAGVIEAGRTALVEGAALLKEAFAQA
modifications: Sequence encoding petroleum-degrading bacterium esterase.
With B3, in data set [4], the “hydrolysis of indicator precursors” value was “Slow hydrolyses of Fura-2 AM and Indo-1 AM”.

B4: SalE esterase: Acinetobacter SalE esterase expressed in E. coli BL21(DE3) (SEQ ID NO:3) (protein, listed as Acinetobacter sp.)
chain: MITYVLVHGSWHDGSLWEPVATHLRAQGHTVHCPTVAGHGPNADRNVTHAQCSQSIADYIVKHDLSEIVLLGHSYGGTIISKVAEAIPERIQRLIYWNAFVLQDGENMFDNMPEAYYELFTSLAAASGDNTVLLPYEVWRHAFINDADDQMAEETYKMLTPEPCQPFHDRLDLKKFYTLNIPKSYLNCTEDQALPAGFWHPKMSNRLGEFKLVEMGGSHEAMFTRPQELATKIIEASHD
For the molecule B4, the “hydrolysis of indicator precursors” value in data set [4] is on record as “no apparent Ca^2+ sensitivity was detected”.

(Values after US20020090619A1, “Methods for identifying mitochondrial divalent cation transporters” (priority 2000, published 2002).)
